Source: US20050169944A1, “Increasing tumor oxygen content by administration of stressed cells” (priority 2002, published 2005)

Experiments:
[1] = Tolerability of intravenous ozone in tumor bearing mice; assay type: in vivo, C3H mice; conditions: 50 μl of 5 or 20 μg of ozone per ml of oxygen, tail vein, 5 daily injections, with melphalan
Protocol: In order to stress cells in vivo, ozone at 5 μg per ml of oxygen, or 20 μg per ml of oxygen was injected directly into the tail vein of tumor bearing mice. Such injections are performed by filling a 1 cc syringe with the indicated concentration of ozone in medical grade oxygen. The gas is slowly injected into the tail vein so not to induce embolism. Due to the high solubility of oxygen and ozone in blood, embolism formation is not usually a problem.
8 week old male C3H mice were inoculated with 2×10^6 FSaIIC murine fibrosarcoma cells in the hind limb. When tumors reached a volume of 50 mm^3, animal were divided into 4 groups of 10 mice. Group I was untreated, Group II was administered a dose of 10 mg/kg melphalan by intraperitoneal injection. Group III was administered melphalan together with 50 μl of 5 μg of ozone per ml of oxygen by tail vein injection. Group IV was administered melphalan with 50 μl of 20 μg of ozone per ml of oxygen by tail vein injection. Following the initial melphalan injection, animals in Groups III and IV continued receiving intravenous injections of 50 μl of 5 μg of ozone per ml of oxygen, or 50 μl of 20 μg of ozone per ml of oxygen, respectively for 4 days, one injection per day. All animals were observed until tumors attained a volume of 500 mm^3. The delay in tumor time to achieve […] volume is illustrated in FIG. 8.

[2] = test system: FSaIIC murine fibrosarcoma; assay: Tumor growth delay with melphalan (time to 500 mm^3); assay type: in vivo, C3H mice; conditions: melphalan 10 mg/kg i.p. plus 50 μl of 5 or 20 μg of ozone per ml of oxygen by tail vein injection, then 4 days; FIG. 8
Protocol: 8 week old male C3H mice were inoculated with 2×10^6 FSaIIC murine fibrosarcoma cells in the hind limb. When tumors reached a volume of 50 mm^3, animal were divided into 4 groups of 10 mice. Group I was untreated, Group II was administered a dose of 10 mg/kg melphalan by intraperitoneal injection. Group III was administered melphalan together with 50 μl of untreated syngeneic blood injected intramuscularly in the non-tumor bearing hind limb. Group IV was administered melphalan with 50 μl of syngeneic blood treated with 20 μl ozone/ml of oxygen. Following the initial melphalan injection, animals in Groups III and IV continued receiving intramuscular injections of 50 μl of untreated syngeneic blood, or 50 μl of syngeneic blood treated with 20 μl ozone/ml of oxygen, respectively for 4 days, one injection per day. All animals were observed until tumors attained a volume of 500 mm^3. The delay in tumor time to achieve 500 mm^3 volume is illustrated in FIG. 4.
8 week old male C3H mice were inoculated with 2×10^6 FSaIIC murine fibrosarcoma cells in the hind limb. When tumors reached a volume of 50 mm^3, animal were divided into 4 groups of 10 mice. Group I was untreated, Group II was administered a dose of 10 mg/kg melphalan by intraperitoneal injection. Group HI was administered melphalan together with an intramuscular injection of 1×10^6 syngeneic untreated mononuclear cells. […]

O=[O+][O-] [intravenous ozone, ozone]
tolerability [1]: well tolerated | delay in time to achieve 500 mm^3 tumor volume with melphalan [2]: increased the tumor inhibitory effects of melphalan
